Measured values from patent US12649980B2, “Three-dimensional surface for protein and small molecule microarrays” (The Johns Hopkins University, priority 2019, dated 2026).

Assays:
MCF-7 = test: [3H]-2DG uptake assay in MCF-7 cells; format: cell-based, human
Protocol: (§1) Hay, Nat. Rev. […] To determine whether RgA could inhibit glucose uptake in cancer cell lines in addition to A549, the impact of RgA on [3H]-2DG uptake in six other cancer cell lines, including HCC1954, MCF-7, PANC10.05, Jurkat T, HeLa, and RKO was measured (FIG. 3A, Table 3).
(§2) The inhibitory activity of compounds on glucose transport was analyzed by measuring the cell uptake of [3H]-2DG as previously described. Ulanovskaya et al., Chem. Biol. 2011, 18, 222-230. Briefly, cells were washed twice and incubated in low-glucose medium for 10 min. Cells were added drugs and incubated for another 10 min before adding [3H]-2DG. After 10 min incubation with [3H]-2DG, cells were washed twice and lysed with 0.2 N NaOH plus 0.2% SDS. The cell lysate was transferred to a new tube containing 1 mL of optiphase supermix. Glucose uptake was quantified with a scintillation counter.

[1] = tested on: sealed erythrocyte membranes; test: [3H]-2DG uptake in purified sealed erythrocyte membranes; format: cell-based, human; conditions: read-out: IC50 [3H]-2DG uptake into sealed erythrocyte membranes
Protocol: To determine which of the 17 rapafucin hits inhibited the transporter activity of GLUT1, an orthogonal glucose uptake assay using 2-deoxy-D-[3H] glucose ([3H]-2DG), a nonhydrolyzable, radioactive glucose analog, was employed. Each hit was separately incubated with A549 cells for 10 min before the amount of [3H]-2DG taken up by the cells was measured using scintillation counting. […] The effect of JW11-D2 on uptake of [3H]-2DG in human red blood cells that exclusively express GLUT1 was then determined. Helgerson and Carruthers, J. Biol. Chem. 1987, 262, 5464-5475. […] To further improve the potency of JW11-D2, a structure-activity relationship (SAR) study was performed by synthesizing 21 new analogs of JW11-D2 using different amino acid building blocks.

FKBP52 = FKBP52 (Homo sapiens, UniProt Q02790); test: peptidyl prolyl cis-trans isomerase activity inhibition, FKBP52; format: biochemical; conditions: inhibition of prolyl isomerase activity
HeLa [2] = test: [3H]-2DG uptake assay in HeLa cells; format: cell-based, human
Protocol: as §1, §2

FKBP51 = FKBP51 (Homo sapiens, UniProt Q13451); test: peptidyl prolyl cis-trans isomerase activity inhibition, FKBP51; format: biochemical; conditions: inhibition of prolyl isomerase activity
HeLa [3] = test: Alamar blue cell proliferation assay, HeLa; format: cell-based, human; conditions: 72 h, read-out: IC50 Assay B (Alamar blue cell proliferation)
Protocol: The effects of RgA on cell growth, survival, and cell death was then determined. […] Treatment with 5 μM of RgA caused an increase in G1 phase by approximately 23% in comparison to control and approximately 7% and 17% decreases in cells in S and G2/M phases, respectively. The induction in G1 phase cell cycle arrest by RgA is dose-dependent (FIG. 5A, FIG. 16). […] Jones and Thompson, Genes Dev. 2009, 23, 537-548. […] The IC50 values of RgA against several human cancer cell lines also was determined using the alamar blue cell proliferation assay.
Cells were seeded into a 96-well plate (Costar) in 180 μL culture media. After an overnight recovery, drugs were added and incubated for 72 h. After drug incubation, cells were added with 20 μL of alamar blue reagent and the plates were incubated at 37° C. for 6 h before reading the fluorescence (544 nm Ex/590 nm Em) with a plate reader. GraphPad Prism (v4.03) software was used to determine IC50 values using a four parameter logistic regression.

RKO = test: [3H]-2DG uptake assay in RKO cells; format: cell-based, human
Protocol: as §1, §2

Chain of FKBP52 (Q02790 whole entry, species assumed): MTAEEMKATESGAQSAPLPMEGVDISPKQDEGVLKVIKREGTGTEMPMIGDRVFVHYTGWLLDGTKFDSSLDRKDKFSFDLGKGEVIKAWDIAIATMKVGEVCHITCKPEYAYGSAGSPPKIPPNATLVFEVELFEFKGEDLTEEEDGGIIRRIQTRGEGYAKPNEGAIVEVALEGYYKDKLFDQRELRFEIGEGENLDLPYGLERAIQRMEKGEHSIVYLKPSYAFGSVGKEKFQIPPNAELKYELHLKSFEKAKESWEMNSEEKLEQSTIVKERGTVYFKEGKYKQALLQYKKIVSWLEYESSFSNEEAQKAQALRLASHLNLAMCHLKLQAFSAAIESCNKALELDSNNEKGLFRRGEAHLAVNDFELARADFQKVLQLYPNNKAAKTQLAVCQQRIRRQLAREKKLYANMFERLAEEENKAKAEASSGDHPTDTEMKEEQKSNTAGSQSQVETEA
Chain of FKBP51 (Q13451 whole entry): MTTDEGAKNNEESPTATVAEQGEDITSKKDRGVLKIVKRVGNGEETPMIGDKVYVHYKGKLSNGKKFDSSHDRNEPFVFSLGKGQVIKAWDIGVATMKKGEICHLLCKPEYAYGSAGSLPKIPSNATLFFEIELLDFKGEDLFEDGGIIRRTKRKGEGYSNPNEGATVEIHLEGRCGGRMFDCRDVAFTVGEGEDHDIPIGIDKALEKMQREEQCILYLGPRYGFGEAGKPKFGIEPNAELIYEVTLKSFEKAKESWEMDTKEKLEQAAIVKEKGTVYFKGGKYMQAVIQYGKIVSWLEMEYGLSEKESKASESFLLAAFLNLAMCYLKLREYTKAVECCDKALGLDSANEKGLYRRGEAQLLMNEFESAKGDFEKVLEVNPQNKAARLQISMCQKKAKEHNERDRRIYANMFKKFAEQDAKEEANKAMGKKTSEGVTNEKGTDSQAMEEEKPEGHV

For `CCC(C)C1C(=O)NCC(=O)N(C)CCC=CC(=O)OCC(C)(C)C(=O)C(=O)N2CCCCC2C(=O)OC(CCc2ccc(OC)c(OC)c2)c2cccc(c2)NC(=O)CCC(=O)N(C)C(CC(C)C)C(=O)NC(Cc2ccccc2)C(=O)N1C` (centres unmarked) [JW11-D2, Rapaglutin A], the IC50 (MCF-7; MCF-7) was 3.3 nM, the “effect of high concentration of FK506 and rapamycin on the inhibitory activity of RgA” value (MCF-7; MCF-7, 100 nM RgA, 20 μM FK506, 20 μM Rapamycin) was “negligible effect” and the IC50 [1] was 49.5 nM. It also gave a Ki (FKBP52) of 32 ± 3 nM, an IC50 (HeLa [2]) of 18.9 nM and a Ki (FKBP51) of 46 ± 10 nM. The IC50 (HeLa [3]) was 281 nM and the IC50 (RKO) was 10.8 nM.
